From the supplement of paper PMC10307832

Key:
Test in all cases: relative viability (nuclei count vs DMSO), 5 days (fraction); higher = more cells survive
Neratinib + Pemetrexed = compound: CCOc1cc2ncc(C#N)c(Nc3ccc(OCc4ccccn4)c(Cl)c3)c2cc1NC(=O)/C=C/CN(C)C [Neratinib] + Nc1nc2[nH]cc(CCc3ccc(C(=O)N[C@@H](CCC(=O)O)C(=O)O)cc3)c2c(=O)[nH]1 [Pemetrexed] (partner 0.2 µM)
Method in brief: (§1)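 For relative viability, nuclei counts in treated wells were divided by those in vehicle wells. Lung cancer cell lines had been pin-tool dosed in 1536-well plates the day after seeding and cultured for 5 days, then fixed and stained in one step (final 0.05% Triton X-100, 1% formaldehyde, 1 ug/ml Hoechst) and imaged at 4×. Doses were one drug alone or a fixed anchor-drug dose plus five library-drug doses (not always all listed) in √10 steps, and values are duplicate-plate medians.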

Neratinib + Vorinostat = compound: CCOc1cc2ncc(C#N)c(Nc3ccc(OCc4ccccn4)c(Cl)c3)c2cc1NC(=O)/C=C/CN(C)C [Neratinib] + O=C(CCCCCCC(=O)Nc1ccccc1)NO [Vorinostat] (partner 1 µM)
Method in brief: as §1

Neratinib + Olaparib = compound: CCOc1cc2ncc(C#N)c(Nc3ccc(OCc4ccccn4)c(Cl)c3)c2cc1NC(=O)/C=C/CN(C)C [Neratinib] + O=C(c1cc(Cc2n[nH]c(=O)c3ccccc23)ccc1F)N1CCN(C(=O)C2CC2)CC1 [Olaparib] (partner 8 µM)
Method in brief: as §1

Neratinib + Linsitinib = compound: CCOc1cc2ncc(C#N)c(Nc3ccc(OCc4ccccn4)c(Cl)c3)c2cc1NC(=O)/C=C/CN(C)C [Neratinib] + C[C@]1(O)C[C@@H](c2nc(-c3ccc4ccc(-c5ccccc5)nc4c3)c3c(N)nccn32)C1 [Linsitinib] (partner 1 µM)
Method in brief: as §1

Cell Line | relative viability (Neratinib + Pemetrexed; first compound 0.01 µM) | relative viability (Neratinib + Pemetrexed; first compound 0.03162 µM) | relative viability (Neratinib + Pemetrexed; first compound 0.1 µM) | relative viability (Neratinib + Pemetrexed; first compound 0.3162 µM) | relative viability (Neratinib + Pemetrexed; first compound 1 µM) | relative viability (Neratinib + Vorinostat; first compound 0.01 µM) | relative viability (Neratinib + Vorinostat; first compound 0.03162 µM) | relative viability (Neratinib + Vorinostat; first compound 0.1 µM) | relative viability (Neratinib + Vorinostat; first compound 0.3162 µM) | relative viability (Neratinib + Vorinostat; first compound 1 µM) | relative viability (Neratinib + Olaparib; first compound 0.01 µM) | relative viability (Neratinib + Olaparib; first compound 0.03162 µM) | relative viability (Neratinib + Olaparib; first compound 0.1 µM) | relative viability (Neratinib + Olaparib; first compound 0.3162 µM) | relative viability (Neratinib + Olaparib; first compound 1 µM) | relative viability (Neratinib + Linsitinib; first compound 0.01 µM) | relative viability (Neratinib + Linsitinib; first compound 0.03162 µM) | relative viability (Neratinib + Linsitinib; first compound 0.1 µM) | relative viability (Neratinib + Linsitinib; first compound 0.3162 µM) | relative viability (Neratinib + Linsitinib; first compound 1 µM)
201T | 0.358 | 0.373 | 0.316 | 0.35 | 0.324 | 0.978 | 0.95 | 0.783 | 0.969 | 0.849 | 0.811 | 0.813 | 0.737 | 0.782 | 0.838 | 1.01 | 1.01 | 0.92 | 0.931 | 0.852
A-427 | 1.13 | 1.05 | 0.975 | 0.897 | 0.866 | 0.958 |  | 0.849 |  | 0.857 | 0.826 | 0.883 | 0.56 | 0.71 | 0.553 | 1.13 | 1.19 | 1.11 | 1.07 | 0.731
ABC-1 |  |  |  |  |  | 1.57 |  | 0.813 | 1.13 | 0.713 | 0.835 | 0.979 | 0.946 | 0.631 | 0.489 | 0.781 |  | 0.611 | 0.433 | 0.292
BEN | 0.971 | 0.929 | 0.751 | 0.778 | 0.623 | 0.562 | 0.596 | 0.606 | 0.552 | 0.43 | 1.15 | 1.21 | 0.863 | 0.932 | 0.816 | 1.03 | 0.961 | 0.814 | 0.744 | 0.544
CAL-12T | 1.38 | 1.17 | 0.946 | 0.798 | 0.329 | 0.802 | 0.835 | 0.553 | 0.436 | 0.198 | 0.698 | 0.707 | 0.709 | 0.406 | 0.343 | 0.771 | 1.09 | 0.703 | 0.455 | 0.343
COR-L23 | 0.206 | 0.199 | 0.211 | 0.187 | 0.191 | 0.466 | 0.468 | 0.486 | 0.449 | 0.235 | 0.349 | 0.398 | 0.275 | 0.365 | 0.311 | 1.01 | 1.08 | 0.879 | 0.835 | 0.318
COR-L 105 | 1.11 | 1.13 | 0.857 | 0.484 | 0.37 | 0.781 | 0.817 | 0.5 | 0.505 | 0.33 | 0.641 |  | 0.506 | 0.414 | 0.419 | 0.989 | 1.07 | 0.754 | 0.298 | 0.241
Calu-6 |  |  |  |  |  |  |  |  |  |  | 0.507 | 0.643 | 0.568 | 0.518 | 0.369 | 1.03 | 1.08 | 1.02 | 0.899 | 0.824
ChaGo-K-1 | 0.247 | 0.274 | 0.248 | 0.429 | 0.233 | 0.9 | 0.814 | 0.675 | 0.799 | 0.799 | 0.412 | 0.469 | 0.331 | 0.392 | 0.401 |  |  |  |  | 
